Reference: US8772343B2, “Chemical compounds” (Pfizer Limited, priority 2010, dated 2014)
Counter-ions that a name gives are not always drawn.

The compounds below were run against T1, Nav1.7 (or SCN9A) channel (Homo sapiens, UniProt Q15858) (assay: Nav1.7 PatchXpress automated whole-cell electrophysiology in HEK cells expressing hSCN9A). Settings: estimated IC50 from single point data, PatchXpress assay, held at V1/2 of inactivation, read-out: Nav1.7 EIC50.
T1 construct: expressed in transfected cells
T1 sequence (Q15858 whole entry): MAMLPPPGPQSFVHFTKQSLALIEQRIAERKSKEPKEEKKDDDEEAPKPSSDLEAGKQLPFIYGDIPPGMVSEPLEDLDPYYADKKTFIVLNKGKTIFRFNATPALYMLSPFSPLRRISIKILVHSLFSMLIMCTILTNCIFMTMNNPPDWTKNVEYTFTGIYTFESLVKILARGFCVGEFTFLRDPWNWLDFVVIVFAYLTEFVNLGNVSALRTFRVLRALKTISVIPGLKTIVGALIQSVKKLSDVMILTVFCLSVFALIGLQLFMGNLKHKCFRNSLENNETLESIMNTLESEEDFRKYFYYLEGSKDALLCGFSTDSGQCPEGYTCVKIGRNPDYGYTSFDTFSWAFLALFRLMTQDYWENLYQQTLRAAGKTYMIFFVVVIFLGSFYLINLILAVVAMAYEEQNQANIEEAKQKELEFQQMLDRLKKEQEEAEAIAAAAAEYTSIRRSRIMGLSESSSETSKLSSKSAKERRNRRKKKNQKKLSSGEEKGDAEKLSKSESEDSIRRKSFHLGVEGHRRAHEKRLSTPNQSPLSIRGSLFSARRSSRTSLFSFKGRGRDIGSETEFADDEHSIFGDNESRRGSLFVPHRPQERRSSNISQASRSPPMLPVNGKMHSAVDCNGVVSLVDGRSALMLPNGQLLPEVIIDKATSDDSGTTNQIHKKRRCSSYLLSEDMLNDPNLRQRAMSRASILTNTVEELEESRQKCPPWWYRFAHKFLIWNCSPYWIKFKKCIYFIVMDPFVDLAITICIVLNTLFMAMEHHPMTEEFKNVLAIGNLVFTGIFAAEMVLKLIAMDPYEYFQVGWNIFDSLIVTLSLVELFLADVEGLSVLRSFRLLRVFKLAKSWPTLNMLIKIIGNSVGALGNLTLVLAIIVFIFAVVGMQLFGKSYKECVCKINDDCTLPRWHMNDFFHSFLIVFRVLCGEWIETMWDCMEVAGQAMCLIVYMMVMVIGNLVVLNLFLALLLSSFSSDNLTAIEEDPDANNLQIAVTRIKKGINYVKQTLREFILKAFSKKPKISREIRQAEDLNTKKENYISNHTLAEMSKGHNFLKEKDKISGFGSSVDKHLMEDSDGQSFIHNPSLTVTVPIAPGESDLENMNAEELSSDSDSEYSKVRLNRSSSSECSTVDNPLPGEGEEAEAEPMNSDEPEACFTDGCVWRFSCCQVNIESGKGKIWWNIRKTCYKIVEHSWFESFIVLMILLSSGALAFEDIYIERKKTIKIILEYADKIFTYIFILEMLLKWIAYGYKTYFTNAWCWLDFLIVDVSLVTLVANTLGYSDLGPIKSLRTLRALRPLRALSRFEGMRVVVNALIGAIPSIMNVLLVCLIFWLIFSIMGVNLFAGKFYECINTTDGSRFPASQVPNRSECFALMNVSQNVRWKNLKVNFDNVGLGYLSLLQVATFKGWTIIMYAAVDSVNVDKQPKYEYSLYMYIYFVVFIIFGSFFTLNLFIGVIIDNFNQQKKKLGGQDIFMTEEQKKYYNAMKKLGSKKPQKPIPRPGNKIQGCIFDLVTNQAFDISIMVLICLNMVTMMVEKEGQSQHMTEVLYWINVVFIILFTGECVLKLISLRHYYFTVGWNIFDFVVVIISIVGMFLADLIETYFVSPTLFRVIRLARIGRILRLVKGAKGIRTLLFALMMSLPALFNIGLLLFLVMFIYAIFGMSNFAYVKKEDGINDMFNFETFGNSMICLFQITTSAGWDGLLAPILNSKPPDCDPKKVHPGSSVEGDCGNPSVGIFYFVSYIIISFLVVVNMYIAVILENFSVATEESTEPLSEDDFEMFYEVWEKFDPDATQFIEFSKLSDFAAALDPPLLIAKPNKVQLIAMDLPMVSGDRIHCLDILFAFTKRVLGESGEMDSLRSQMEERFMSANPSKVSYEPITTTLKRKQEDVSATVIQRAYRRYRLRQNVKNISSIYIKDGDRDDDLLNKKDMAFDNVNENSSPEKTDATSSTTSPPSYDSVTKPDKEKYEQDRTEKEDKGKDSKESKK
Assay type: cell-based
Procedure: The ability of the compounds of formula (I) to block the Nav1.7 (or SCN9A) channel were measured using the assay described below.
Human Embryonic Kidney (HEK) cells were transfected with an hSCN9A construct using lipofectamine reagent (Invitrogen), using standard techniques. Cells stably expressing the hSCN9A constructs were identified by their resistance to G-418 (400 μg/ml). Clones were screened for expression using the whole-cell voltage-clamp technique.
HEK cells stably transfected with hSCN9A were maintained in DMEM medium supplemented with 10% heat-inactivated fetal bovine serum and 400 μg/ml G-418 in an incubator at 37° C. with a humidified atmosphere of 10% CO2. For HTS, cells were harvested from flasks by trypsinization and replated in an appropriate multi-well plate (typically 96 or 384 wells/plate) such that confluence would be achieved within 24 hours of plating. For electrophysiological studies, cells were removed from the culture flask by brief trypsinization and re-plated at low density onto glass cover slips. Cells were typically used for electrophysiological experiments within 24 to 72 hours after plating.
Cover slips containing HEK cells expressing hSCN9A were placed in a bath on the stage of an inverted microscope and perfused (approximately 1 ml/minutes) with extracellular solution of the following composition: 138 mM NaCl, 2 mM CaCl2, 5.4 mM KCl, 1 mM MgCl2, 10 mM glucose, and 10 mM HEPES, pH 7.4, with NaOH. […] The osmolarity of the extracellular and intracellular solutions was 300 mOsm/kg and 295 mOsm/kg, respectively. All recordings were made at room temperature (22-24° C.) using AXOPATCH 200B amplifiers and PCLAMP software (Axon Instruments, Burlingame, Calif.).
hSCN9A currents in HEK cells were measured using the whole-cell configuration of the patch-clamp technique (Hamill et al., 1981). Uncompensated series resistance was typically 2 to 5 mega ohms and >85% series resistance compensation was routinely achieved. As a result, voltage errors were negligible and no correction was applied. Current records were acquired at 20 to 50 KHz and filtered at 5 to 10 KHz.
HEK cells stably transfected with hSCN9A were viewed under Hoffman contrast optics and placed in front of an array of flow pipes emitting either control or compound-containing extracellular solutions. All compounds were dissolved in dimethyl sulfoxide to make 10 mM stock solutions, which were then diluted into extracellular solution to attain the final concentrations desired. […] The voltage-dependence of inactivation was determined by applying a series of depolarizing prepulses (8 sec long in 10 mV increments) from a negative holding potential. The voltage was then immediately stepped to 0 mV to assess the magnitude of the sodium current. Currents elicited at 0 mV were plotted as a function of prepulse potential to allow estimation of the voltage at which 50% of the channels were inactivated (midpoint of inactivation or V1/2). Compounds were tested for their ability to inhibit hSCN9A sodium channels by activating the channel with a 20 msec voltage step to 0 mV following an 8 second conditioning prepulse to the empirically determined V1/2. Compound effect (% inhibition) was determined by difference in current amplitude before and after application of test compounds. For ease of comparison, “estimated IC-50” (EIC50) values were calculated from single point electrophysiology data by the following equation, (tested concentration, uM)×(100-% inhibition/% inhibition). Inhibition values<20% and >80% were excluded from the calculation.
Electrophysiological assays were conducted with PatchXpress 7000 hardware and associated software (Molecular Devices Corp). All assay buffers and solutions were identical to those used in conventional whole-cell voltage clamp experiments described above. hSCN9A cells were grown as above to 50%-80% confluency and harvested by trypsinization. […]

| SMILES | IC50 [nM] |
| --- | --- |
| COc1ncccc1-c1cc(C(=O)NS(C)(=O)=O)ccc1Oc1ccc(OCC(C)C)nc1 [Example 2, 4-[(6-isobutoxypyridin-3-yl)oxy]-3-(2-methoxypyridin-3-yl)-N-(methylsulfonyl)benzamide diethylamine salt] | 220 |
| COc1cccnc1-c1cc(C(=O)NS(C)(=O)=O)ccc1Oc1ccc(Cl)cc1 [Example 3, 4-(4-chlorophenoxy)-3-(3-methoxypyridin-2-yl)-N-(methylsulfonyl)benzamide] | 990 |
| COc1cc(Cl)ccc1Oc1cc(F)c(C(=O)NS(C)(=O)=O)cc1-c1cccnc1OC [Example 4, 4-(4-chloro-2-methoxyphenoxy)-2-fluoro-5-(2-methoxypyridin-3-yl)-N-(methylsulfonyl)benzamide] | 4500 |
| COc1ncccc1-c1cc(C(=O)NS(C)(=O)=O)ccc1Oc1ccccc1 [Example 5, 3-(2-methoxypyridin-3-yl)-N-(methylsulfonyl)-4-phenoxybenzamide] | 900 |
| COc1ncccc1-c1cc(C(=O)NS(=O)(=O)C2CC2)ccc1Oc1ccccc1 [Example 6, N-(cyclopropylsulfonyl)-3-(2-methoxypyridin-3-yl)-4-phenoxybenzamide] | 1300 |
| COc1ncccc1-c1cc(C(=O)NS(C)(=O)=O)ccc1Oc1cnc(OC(C)C)c(Cl)c1 [Example 7, 4-[(5-Chloro-6-isopropoxypyridin-3-yl)oxy]-3-(2-methoxypyridin-3-yl)-N-(methylsulfonyl)benzamide] | 66 |
| CS(=O)(=O)NC(=O)c1ccc(Oc2ccc(Cl)cc2)c(-c2ccc(F)cc2)c1 [Example 9, 6-(4-Chlorophenoxy)-4′-fluoro-N-(methylsulfonyl)biphenyl-3-carboxamide] | 110 |
| Cc1n[nH]c(C)c1-c1cc(C(=O)NS(C)(=O)=O)ccc1Oc1ccc(Cl)cc1 [Example 14, 4-(4-chlorophenoxy)-3-(3,5-dimethyl-1H-pyrazol-4-yl)-N-(methylsulfonyl)benzamide] | > 3000 |
| COc1ccccc1-c1cc(C(=O)NS(C)(=O)=O)ccc1Oc1ccc(Cl)cc1 [Example 15, 6-(4-chlorophenoxy)-2′-methoxy-N-(methylsulfonyl)-biphenyl-3-carboxamide] | 180 |
| COc1ccc(-c2cc(C(=O)NS(C)(=O)=O)ccc2Oc2ccc(Cl)cc2)cn1 [Example 16, 4-(4-chlorophenoxy)-3-(6-methoxypyridin-3-yl)-N-(methylsulfonyl)benzamide] | 910 |
| CS(=O)(=O)NC(=O)c1ccc(Oc2ccc(Cl)cc2)c(-c2ccccc2F)c1 [Example 18, 6-(4-chlorophenoxy)-2′-fluoro-N-(methylsulfonyl)-biphenyl-3-carboxamide] | 570 |
| CCOc1cccc(-c2cc(C(=O)NS(C)(=O)=O)ccc2Oc2ccc(Cl)cc2)c1 [Example 20, 6-(4-chlorophenoxy)-3′-ethoxy-N-(methylsulfonyl)-biphenyl-3-carboxamide] | 820 |
| CS(=O)(=O)NC(=O)c1ccc(Oc2ccc(Cl)cc2)c(-c2cncnc2)c1 [Example 23, 4-(4-chlorophenoxy)-N-(methylsulfonyl)-3-pyrimidin-5-ylbenzamide] | 2800 |
| CS(=O)(=O)NC(=O)c1ccc(Oc2ccc(Cl)cc2)c(-c2ccccc2OC(F)(F)F)c1 [Example 24, 6-(4-chlorophenoxy)-N-(methylsulfonyl)-2′-(trifluoromethoxy)biphenyl-3-carboxamide] | 500 |
| Cn1nccc1-c1cc(C(=O)NS(C)(=O)=O)ccc1Oc1ccc(Cl)cc1 [Example 27, 4-(4-chlorophenoxy)-3-(1-methyl-1H-pyrazol-5-yl)-N-(methylsulfonyl)benzamide] | > 3000 |
| COc1cccc(-c2cc(C(=O)NS(C)(=O)=O)ccc2Oc2ccc(Cl)cc2)c1 [Example 29, 6-(4-chlorophenoxy)-3′-methoxy-N-(methylsulfonyl)-biphenyl-3-carboxamide] | 570 |
| CS(=O)(=O)NC(=O)c1ccc(Oc2ccc(Cl)cc2)c(-c2ccccc2Cl)c1 [Example 31, 2′-chloro-6-(4-chlorophenoxy)-N-(methylsulfonyl)-biphenyl-3-carboxamide] | 270 |
| Cc1cc(-c2cc(C(=O)NS(C)(=O)=O)ccc2Oc2ccc(Cl)cc2)ccn1 [Example 34, 4-(4-chlorophenoxy)-3-(2-methylpyridin-4-yl)-N-(methylsulfonyl)benzamide] | 8600 |
| COc1ncc(-c2cc(C(=O)NS(C)(=O)=O)ccc2Oc2ccc(Cl)cc2)cc1F [Example 36, 4-(4-chlorophenoxy)-3-(5-fluoro-6-methoxypyridin-3-yl)-N-(methylsulfonyl)benzamide] | 3900 |
| CS(=O)(=O)NC(=O)c1ccc(Oc2ccc(Cl)cc2)c(-c2ccc(Cl)cn2)c1 [Example 37, 4-(4-chlorophenoxy)-3-(5-chloropyridin-2-yl)-N-(methylsulfonyl)benzamide] | 340 |
| Cc1ccc(-c2cc(C(=O)NS(C)(=O)=O)ccc2Oc2ccc(Cl)cc2)cn1 [Example 38, 4-(4-chlorophenoxy)-3-(6-methylpyridin-3-yl)-N-(methylsulfonyl)benzamide] | > 3000 |
| CS(=O)(=O)NC(=O)c1ccc(Oc2ccc(Cl)cc2)c(-c2ccc(C#N)nc2)c1 [Example 39, 4-(4-chlorophenoxy)-3-(6-cyanopyridin-3-yl)-N-(methylsulfonyl)benzamide] | 1100 |

The next lines start with the values.

| IC50 [nM] | SMILES |
| --- | --- |
| 2700 | COc1cc(Cl)ccc1Oc1ccc(C(=O)NS(C)(=O)=O)cc1-c1cccnc1OC [Example 1, 4-(4-chloro-2-methoxyphenoxy)-3-(2-methoxypyridin-3-yl)-N-(methylsulfonyl)benzamide diethylamine salt] |
| 49 | CCOc1ncccc1-c1cc(C(=O)NS(C)(=O)=O)ccc1Oc1ccc(Cl)cc1 [Example 8, 4-(4-Chlorophenoxy)-3-(2-ethoxypyridin-3-yl)-N-(methylsulfonyl)benzamide] |
| 940 | CS(=O)(=O)NC(=O)c1ccc(Oc2ccc(Cl)cc2)c(-c2cc[nH]n2)c1 [Example 10, 4-(4-Chlorophenoxy)-N-(methylsulfonyl)-3-(1H-pyrazol-3-yl)benzamide] |
| 3500 | CCOc1ccc(-c2cc(C(=O)NS(C)(=O)=O)ccc2Oc2ccc(Cl)cc2)cc1 [Example 12, 6-(4-chlorophenoxy)-4′-ethoxy-N-(methylsulfonyl)-biphenyl-3-carboxamide] |
| 4600 | CS(=O)(=O)NC(=O)c1ccc(Oc2ccc(Cl)cc2)c(-c2ccncc2)c1 [Example 21, 4-(4-chlorophenoxy)-N-(methylsulfonyl)-3-pyridin-4-ylbenzamide] |
| 120 | CCOc1ccccc1-c1cc(C(=O)NS(C)(=O)=O)ccc1Oc1ccc(Cl)cc1 [Example 32, 6-(4-chlorophenoxy)-2′-ethoxy-N-(methylsulfonyl)-biphenyl-3-carboxamide] |
| 290 | CS(=O)(=O)NC(=O)c1ccc(Oc2ccc(Cl)cc2)c(-c2ccccc2C#N)c1 [Example 33, 6-(4-chlorophenoxy)-2′-cyano-N-(methylsulfonyl)-biphenyl-3-carboxamide] |
| 8000 | CS(=O)(=O)NC(=O)c1ccc(Oc2ccc(Cl)cc2)c(-c2ccccc2C(F)(F)F)c1 [Example 35, 6-(4-chlorophenoxy)-N-(methylsulfonyl)-2′-(trifluoromethyl)biphenyl-3-carboxamide] |
| > 3000 | CCCn1cc(-c2cc(C(=O)NS(C)(=O)=O)ccc2Oc2ccc(Cl)cc2)cn1 [Example 41, 4-(4-chlorophenoxy)-N-(methylsulfonyl)-3-(1-propyl-1H-pyrazol-4-yl)benzamide] |
| 7500 | COc1ccc(-c2cc(C(=O)NS(C)(=O)=O)ccc2Oc2ccc(Cl)cc2)c(C)n1 [Example 42, 4-(4-chlorophenoxy)-3-(6-methoxy-2-methylpyridin-3-yl)-N-(methylsulfonyl)benzamide] |
